Assay results taken from ChEMBL document CHEMBL1201862, “PubChem BioAssay data set” (2004).
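The compound was tested at five concentrations on cells cultured in 96-well plates, with a 48-hour exposure period. At the GI50, growth is halved.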 The source made the active and inactive calls. No stated cut-off is given here; in the data, active = GI50 up to about 1.1 µM and inactive = higher.

Assays:
Assay in all cases: NCI-60 cell line screen, 48 h
HCT-15 = system: HCT-15
HOP-62 = system: HOP-62
IGROV-1 = system: IGROV-1
M14 = system: M14
MDA-MB-231 = system: MDA-MB-231
MDA-MB-435 = system: MDA-MB-435
Malme-3M = system: Malme-3M
NCI-H226 = system: NCI-H226
NCI-H460 = system: NCI-H460
NCI-H522 = system: NCI-H522
OVCAR-8 = system: OVCAR-8
RXF 393 = system: RXF 393
SF-539 = system: SF-539
SK-MEL-2 = system: SK-MEL-2
SK-OV-3 = system: SK-OV-3
SW-620 = system: SW-620
T47D = system: T47D
UACC-257 = system: UACC-257
UO-31 = system: UO-31
CCRF-CEM = system: CCRF-CEM

| SMILES | GI50 (HCT-15) | GI50 (HOP-62) | GI50 (IGROV-1) | GI50 (M14) | GI50 (MDA-MB-231) | GI50 (MDA-MB-435) | GI50 (Malme-3M) | GI50 (NCI-H226) | GI50 (NCI-H460) | GI50 (NCI-H522) | GI50 (OVCAR-8) | GI50 (RXF 393) | GI50 (SF-539) | GI50 (SK-MEL-2) | GI50 (SK-OV-3) | GI50 (SW-620) | GI50 (T47D) | GI50 (UACC-257) | GI50 (UO-31) | GI50 (CCRF-CEM) |
| --- | --- | --- | --- | --- | --- | --- | --- | --- | --- | --- | --- | --- | --- | --- | --- | --- | --- | --- | --- | --- |
| c1cc2c(cc1C(N1CCNCC1)N1CCNCC1)OCO2 | > 100 µM | > 100 µM (inactive) | > 100 µM (inactive) | > 100 µM (inactive) | > 100 µM (inactive) | > 100 µM (inactive) | > 100 µM (inactive) | > 100 µM (inactive) | > 100 µM (inactive) | > 100 µM (inactive) | > 100 µM (inactive) | > 100 µM (inactive) | > 100 µM (inactive) | > 100 µM (inactive) | > 100 µM (inactive) | > 100 µM (inactive) | > 100 µM (inactive) | > 100 µM (inactive) | > 100 µM (inactive) |  |
| CSc1cc(Cl)c(C)cc1S(=O)(=O)NC(=O)NNc1ccc(F)c(Cl)c1 | > 100 µM | > 100 µM (inactive) | > 100 µM (inactive) | > 100 µM (inactive) | > 100 µM (inactive) | > 100 µM (inactive) | > 100 µM (inactive) | > 100 µM (inactive) | > 100 µM (inactive) | > 100 µM (inactive) | > 100 µM (inactive) | > 100 µM (inactive) | > 100 µM (inactive) | > 100 µM (inactive) | > 100 µM (inactive) | > 100 µM (inactive) | > 100 µM (inactive) |  |  | 54.3 µM (inactive) |
| Cc1cc(N2CCOCC2)nc2ccc(Cc3ccc4nc(N5CCOCC5)cc(C)c4c3)cc12 | 41.8 µM | > 100 µM (inactive) | > 100 µM (inactive) | 41.1 µM (inactive) | > 100 µM (inactive) | 43.3 µM (inactive) | 51.1 µM (inactive) | 33.3 µM (inactive) | 26.7 µM (inactive) | 26.5 µM (inactive) | 57.5 µM (inactive) | 25.9 µM (inactive) | 24.2 µM (inactive) | 63.5 µM (inactive) | > 100 µM (inactive) | 35.9 µM (inactive) | 14.6 µM (inactive) | 25.6 µM (inactive) | 38.2 µM (inactive) |  |
| CC(C)/C=N\N1C(N)=C(C#N)C(C#N)(C#N)C1C(C)C (stereo unspecified) | 32.7 µM | 55.7 µM (inactive) | 39.9 µM (inactive) | 66.1 µM (inactive) | 29.9 µM (inactive) | 23.4 µM (inactive) | > 100 µM (inactive) | 55.6 µM (inactive) |  | 62.1 µM (inactive) | 25.1 µM (inactive) | 17.2 µM (inactive) | 22.7 µM (inactive) | 67.3 µM (inactive) | > 100 µM (inactive) | 34.6 µM (inactive) | 48.9 µM (inactive) | 47.5 µM (inactive) | 38 µM (inactive) | 36.2 µM (inactive) |
| Cc1cc2[nH]c(=NS(=O)(=O)c3cc(C)c(Cl)cc3S)[nH]c2cc1C | 73.3 µM | 23.1 µM (inactive) | 96.4 µM (inactive) | 86.5 µM (inactive) | > 100 µM (inactive) | 65.5 µM (inactive) | > 100 µM (inactive) |  | 16.9 µM (inactive) | > 100 µM (inactive) | 77.3 µM (inactive) | > 100 µM (inactive) | 68.9 µM (inactive) | > 100 µM (inactive) | > 100 µM (inactive) | 43.4 µM (inactive) | 82.2 µM (inactive) | > 100 µM (inactive) | 84.5 µM (inactive) | 21.4 µM (inactive) |
| c1ccc2nn(C3CCCCO3)nc2c1 (stereo unspecified) | > 100 µM | > 100 µM (inactive) | > 100 µM (inactive) | > 100 µM (inactive) | > 100 µM (inactive) | > 100 µM (inactive) | > 100 µM (inactive) | > 100 µM (inactive) | > 100 µM (inactive) | > 100 µM (inactive) | > 100 µM (inactive) | > 100 µM (inactive) | > 100 µM (inactive) | > 100 µM (inactive) | > 100 µM (inactive) |  | > 100 µM (inactive) | > 100 µM (inactive) | > 100 µM (inactive) | > 100 µM (inactive) |
| Cc1ccc([N+](=O)[O-])cc1S(=O)(=O)Nc1ccc(C2=NN(c3ccc([N+](=O)[O-])cc3[N+](=O)[O-])C(c3ccccc3O)C2)cc1 (stereo unspecified) | 27 µM | 36.3 µM (inactive) | 26.4 µM (inactive) | 34.2 µM (inactive) | 20.6 µM (inactive) | 39.4 µM (inactive) | 41.7 µM (inactive) | 36.6 µM (inactive) |  | 21 µM (inactive) | 38.4 µM (inactive) | 40.6 µM (inactive) | 55.5 µM (inactive) | 20.7 µM (inactive) | 57 µM (inactive) | 63.7 µM (inactive) | 27.6 µM (inactive) | 25.2 µM (inactive) | 24.5 µM (inactive) | 25 µM (inactive) |
| CN/N=C(\C)C(CN(C)C)C(c1ccccc1)c1c(O)c2ccccc2oc1=O (stereo unspecified) | > 100 µM | > 100 µM (inactive) | > 100 µM (inactive) | > 100 µM (inactive) | > 100 µM (inactive) | > 100 µM (inactive) | 78.9 µM (inactive) | > 100 µM (inactive) | > 100 µM (inactive) | > 100 µM (inactive) | > 100 µM (inactive) | 0.441 µM (active) | > 100 µM (inactive) | > 100 µM (inactive) |  | > 100 µM (inactive) | 18.7 µM (inactive) | > 100 µM (inactive) | > 100 µM (inactive) | 73.6 µM (inactive) |
